# Test results: ChEMBL document CHEMBL1201862, “PubChem BioAssay data set” (2004)
#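 The compound was tested at five concentrations on cells cultured in 96-well plates, with a 48-hour exposure period. Here, GI50 denotes the concentration required for 50% inhibition of growth.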 Activity calls are given as the source filed them. No stated cut-off is given here; in the data, active = GI50 up to about 1.1 µM and inactive = higher.
# Assays:
# Experiment in all cases: NCI tumour cell line growth inhibition, 48 h
# CAKI-1 = system: CAKI-1
# HCC 2998 = system: HCC 2998
# HCT-15 = system: HCT-15
# LXFL 529 = system: LXFL 529
# Malme-3M = system: Malme-3M
# NCI-H226 = system: NCI-H226
# NCI-H23 = system: NCI-H23
# OVCAR-3 = system: OVCAR-3
# SF-268 = system: SF-268
# SF-295 = system: SF-295
# SK-OV-3 = system: SK-OV-3
# SR = system: SR
# UACC-62 = system: UACC-62
# CCRF-CEM = system: CCRF-CEM
# LOX IMVI = system: LOX IMVI
# M14 = system: M14
# DU-145 = system: DU-145
# MCF7 = system: MCF7
# MDA-N = system: MDA-N
# T47D = system: T47D
SMILES,GI50 (CAKI-1),GI50 (HCC 2998),GI50 (HCT-15) [µM],GI50 (LXFL 529),GI50 (Malme-3M),GI50 (NCI-H226),GI50 (NCI-H23),GI50 (OVCAR-3),GI50 (SF-268),GI50 (SF-295),GI50 (SK-OV-3),GI50 (SR),GI50 (UACC-62),GI50 (CCRF-CEM),GI50 (LOX IMVI),GI50 (M14),GI50 (DU-145),GI50 (MCF7),GI50 (MDA-N),GI50 (T47D)
NCCOCCOCC(=O)O,> 100 µM (inactive),> 100 µM (inactive),> 100,> 100 µM (inactive),> 100 µM (inactive),> 100 µM (inactive),> 100 µM (inactive),> 100 µM (inactive),> 100 µM (inactive),> 100 µM (inactive),> 100 µM (inactive),> 100 µM (inactive),> 100 µM (inactive),–,–,–,–,–,–,–
C=C1C2C[C@@H]3OC4CC5O[C@]6(CC5OC4C(C)C3OC(=O)CC3CC[C@@H]4OC5C7OC8C[C@](CCC9CC(=C)[C@H](CCC(C[C@H]1C)O2)O9)(OC7C4O3)O[C@@H]85)C[C@@H]1O[C@@]2(CC(C)[C@@H]3OC(CC(=O)CCO)C(O)C[C@@H]3O2)CC(C)[C@@H]1O6 (stereo not given in full),< 0.001 µM (active),< 0.001 µM (active),< 0.001,< 0.001 µM (active),< 0.001 µM (active),< 0.001 µM (active),< 0.001 µM (active),< 0.001 µM (active),< 0.001 µM (active),< 0.001 µM (active),< 0.001 µM (active),< 0.001 µM (active),< 0.001 µM (active),< 0.001 µM (active),< 0.001 µM (active),< 0.001 µM (active),–,–,–,–
CN1/C(=N\c2ccccc2)S/C1=N/c1ccccc1,–,66.8 µM (inactive),90.8,82.2 µM (inactive),23.1 µM (inactive),> 100 µM (inactive),40 µM (inactive),34.1 µM (inactive),> 100 µM (inactive),> 100 µM (inactive),> 100 µM (inactive),95.7 µM (inactive),> 100 µM (inactive),69.3 µM (inactive),74.6 µM (inactive),72.1 µM (inactive),–,–,–,–
CCCCCCCCCC1CC(=O)Oc2cccc(O)c21 (stereo not given),32.7 µM (inactive),1.23 µM (inactive),23.4,24.4 µM (inactive),18.7 µM (inactive),6.84 µM (inactive),3.31 µM (inactive),16.3 µM (inactive),30.3 µM (inactive),11.6 µM (inactive),7.69 µM (inactive),23.2 µM (inactive),31.5 µM (inactive),27.4 µM (inactive),14 µM (inactive),22.7 µM (inactive),–,–,–,–
O=C(CCC(=O)Nc1ccc(Cl)c(Cl)c1)CC(=O)c1ccc(F)cc1,> 100 µM (inactive),> 100 µM (inactive),–,> 100 µM (inactive),> 100 µM (inactive),> 100 µM (inactive),> 100 µM (inactive),> 100 µM (inactive),> 100 µM (inactive),> 100 µM (inactive),> 100 µM (inactive),> 100 µM (inactive),89.3 µM (inactive),> 100 µM (inactive),> 100 µM (inactive),> 100 µM (inactive),–,–,–,–
CSc1nc(C)cc(=O)n1C1OC(COC(C)=O)C(OC(C)=O)C(OC(C)=O)C1OC(C)=O (stereo not given),–,> 100 µM (inactive),> 100,> 100 µM (inactive),> 100 µM (inactive),> 100 µM (inactive),> 100 µM (inactive),> 100 µM (inactive),> 100 µM (inactive),> 100 µM (inactive),> 100 µM (inactive),> 100 µM (inactive),> 100 µM (inactive),> 100 µM (inactive),> 100 µM (inactive),> 100 µM (inactive),–,–,–,–
COc1cc(/C=C/C(=N\NC(=O)c2ccccc2)c2sc(Nc3ccc(Cl)c(Cl)c3)nc2C)ccc1O,36.4 µM (inactive),28.8 µM (inactive),31.9,31.6 µM (inactive),29.4 µM (inactive),20.5 µM (inactive),25.7 µM (inactive),30.3 µM (inactive),38.6 µM (inactive),33.1 µM (inactive),70.3 µM (inactive),22.3 µM (inactive),7.59 µM (inactive),27.9 µM (inactive),19.7 µM (inactive),31 µM (inactive),–,–,–,–
Brc1ccc(-c2nnc(-c3nn(-c4ccccc4)c4nc5ccccc5nc34)o2)cc1,> 100 µM (inactive),> 100 µM (inactive),–,31.5 µM (inactive),–,> 100 µM (inactive),> 100 µM (inactive),95.7 µM (inactive),> 100 µM (inactive),> 100 µM (inactive),> 100 µM (inactive),27.8 µM (inactive),> 100 µM (inactive),26.1 µM (inactive),> 100 µM (inactive),> 100 µM (inactive),–,–,–,–
C[C@]12CC=CC(=O)[C@@]1(C)CCC(=O)C2,> 100 µM (inactive),> 100 µM (inactive),–,> 100 µM (inactive),> 100 µM (inactive),> 100 µM (inactive),> 100 µM (inactive),> 100 µM (inactive),> 100 µM (inactive),> 100 µM (inactive),> 100 µM (inactive),> 100 µM (inactive),> 100 µM (inactive),> 100 µM (inactive),–,> 100 µM (inactive),–,–,–,–
CCOC(=O)C1(C)CCC(C(=O)OC)C1=O (stereo not given),> 100 µM (inactive),75.3 µM (inactive),20.2,> 100 µM (inactive),> 100 µM (inactive),> 100 µM (inactive),> 100 µM (inactive),> 100 µM (inactive),> 100 µM (inactive),> 100 µM (inactive),> 100 µM (inactive),24.6 µM (inactive),> 100 µM (inactive),21.9 µM (inactive),18.1 µM (inactive),> 100 µM (inactive),–,–,–,–
Cc1n(-c2ccccc2)c2c([n+]1Cc1ccc([N+](=O)[O-])cc1)C(=O)c1ccccc1C2=O,15.7 µM (inactive),2.26 µM (inactive),9.12,1.42 µM (inactive),1.67 µM (inactive),5.43 µM (inactive),1.9 µM (inactive),0.182 µM (active),1.75 µM (inactive),5.45 µM (inactive),4.3 µM (inactive),1.72 µM (inactive),2.03 µM (inactive),1.82 µM (inactive),1.75 µM (inactive),2.59 µM (inactive),1.85 µM (inactive),1.37 µM (inactive),1.77 µM (inactive),1.64 µM (inactive)
